In data set [1] the target is T1, 3',5'-cyclic-AMP phosphodiesterase 4B (Homo sapiens, UniProt Q07343). Description: Inhibition of recombinant human C-terminal His-tagged N-terminal GST-tagged PDE4B2 expressed in baculovirus infected Sf9 cells at 10 uM by radioligand binding assay relative to control.
The nature of data set [2]: Metabolic stability in human liver microsomes assessed as intrinsic clearance. Type of data set: ADME, Microsome. The conditions noted are these: read-out: CLH. (In general: Microsomes from liver hold many membrane-bound enzymes, among them those of drug oxidation.)
Data set [3] in a line: Metabolic stability in mouse liver microsomes assessed as intrinsic clearance. It counts as ADME, Microsome. The settings on record: read-out: CLH.
Data set [4] in a line: Protein binding in human plasma assessed as unbound fraction. It counts as ADME, cell-free.
Data set [5] can be described thus: Protein binding in mouse plasma assessed as unbound fraction. It counts as ADME, cell-free.
Data set [6] is described as follows: Effect on TNFalpha production in C57BL/6 mouse bone marrow derived Macrophage at 1 to 10 uM incubated for 30 mins by ELISA. The conditions noted are these: 0.5 h. (An ELISA detects its analyte on a solid surface through an enzyme-linked reagent.)
The target of data set [7] is T1, 3',5'-cyclic-AMP phosphodiesterase 4B. Description: Inhibition of recombinant human C-terminal His-tagged N-terminal GST-tagged PDE4B2 expressed in baculovirus infected Sf9 cells by radioligand binding assay. It counts as cell-based.

As a reminder, the inhibition is the change of the read-out against control, counted positive when it falls. For orientation: fraction unbound means free concentration divided by total concentration. As a reminder, the IC50 is the concentration needed to halve the response being measured.

T1 sequence (Q07343 whole entry): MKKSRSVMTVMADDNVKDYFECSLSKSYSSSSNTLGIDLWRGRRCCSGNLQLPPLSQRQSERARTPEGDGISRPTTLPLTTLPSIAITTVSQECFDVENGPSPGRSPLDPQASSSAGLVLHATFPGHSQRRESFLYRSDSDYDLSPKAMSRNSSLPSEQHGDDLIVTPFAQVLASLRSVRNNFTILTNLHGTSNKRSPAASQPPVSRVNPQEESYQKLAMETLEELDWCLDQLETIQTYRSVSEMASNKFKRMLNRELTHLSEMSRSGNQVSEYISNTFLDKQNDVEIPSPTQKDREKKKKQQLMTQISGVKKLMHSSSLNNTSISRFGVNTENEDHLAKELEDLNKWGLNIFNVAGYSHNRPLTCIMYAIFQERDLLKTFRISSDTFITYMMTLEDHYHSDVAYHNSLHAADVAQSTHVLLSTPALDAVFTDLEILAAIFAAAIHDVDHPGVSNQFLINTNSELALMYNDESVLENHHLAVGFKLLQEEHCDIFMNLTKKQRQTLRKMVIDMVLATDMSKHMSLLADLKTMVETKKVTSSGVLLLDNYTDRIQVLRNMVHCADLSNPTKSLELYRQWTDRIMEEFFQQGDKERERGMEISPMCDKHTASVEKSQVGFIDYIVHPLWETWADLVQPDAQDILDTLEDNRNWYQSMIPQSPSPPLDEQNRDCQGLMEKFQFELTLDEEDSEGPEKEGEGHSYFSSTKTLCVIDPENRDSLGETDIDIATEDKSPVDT

On to `N#Cc1c(F)cc(-n2c(C(=O)N3CC(F)(F)C3)cc3cccnc32)cc1F`, for which the inhibition in data set [1] amounted to 41%.

In the case of `Cc1ccc(-n2c(C(=O)NC3CC3)cc3cccnc32)cc1Cl`, the CLint scaled in data set [2] is 172 mL/min/kg; in data set [3] it was 551 mL/min/kg. In addition, the free fraction (fraction unbound) stood at 0.011 in data set [4] and 0.006 in data set [5].

`COc1ccc(C2CNC(=O)C2)cc1OC1CCCC1` (stereo not drawn) [ROLIPRAM]: the Activity entry in data set [6] is listed as “Non-Toxic”.

With `O=C(c1nc2ccccc2n1-c1ccc(Cl)c(Cl)c1)N1CC(F)C1`, the IC50 in data set [7] stood at 2.4 µM.

`Cc1ccc(-n2c(C(=O)NC3CC(F)C3)cc3cccnc32)cc1Cl` (stereo not drawn): the IC50 in data set [7] turned out to be 9.4 µM. Moreover, in data set [6], the Activity entry is listed as “Non-Toxic”.

For `COc1ccc(-n2c(C(=O)N3CC(F)C3)cc3cccnc32)cc1`, the inhibition in data set [1] worked out at 67%.

Take `O=C(c1cc2cccnc2n1-c1ccc(Cl)c(F)c1)N1CC(F)C1`: the Activity entry in data set [6] is “Non-Toxic”.

Take `COc1c(F)cc(-n2c(C(=O)N3CC(F)C3)cc3cccnc32)cc1F`: the Activity result in data set [6] is “Non-Toxic”. For the same molecule, the CLint scaled was below 23.1 mL/min/kg in data set [2] and below 49.5 mL/min/kg in data set [3]. Besides, the fraction unbound was 0.302 in data set [4] and 0.133 in data set [5].

Consider `Cc1ccc(-n2c(C(=O)NC3CC3)nc3cccnc32)cc1Cl`, for which the CLint scaled in data set [2] worked out at 29.6 mL/min/kg; in data set [3], 150 mL/min/kg. The fraction unbound in data set [4] was determined as 0.085; in data set [5], 0.056.

On to `O=C(NC1CC1)c1cc2cccnc2n1-c1ccc(Cl)c(Cl)c1`, for which the figures for the CLint scaled in data set [2] and in data set [3] were 179 mL/min/kg and 157 mL/min/kg, respectively. The figures for the fraction unbound in data set [4] and in data set [5] were 0.026 and 0.006, respectively.

Turning to `O=C(c1cc2cccnc2n1-c1ccnc(F)c1)N1CC(F)C1`, the CLint scaled was below 23.1 mL/min/kg in data set [2] and below 49.5 mL/min/kg in data set [3]. Moreover, the free fraction (fraction unbound) in data set [4] was found to be 0.474; in data set [5], 0.393.

As for `O=C(c1cc2cccnc2n1-c1ccnc(F)c1)N1CC(F)(F)C1`, the inhibition in data set [1] amounted to 37%.

For `O=C(c1cc2cccnc2n1Cc1ccc(Cl)c(Cl)c1)N1CC(F)C1`, the inhibition in data set [1] stood at 72%.

Turning to `N#Cc1c(F)cc(-n2c(C(=O)NC3CC3)cc3cccnc32)cc1F`, the values for the CLint scaled in data set [2] and in data set [3] were 31.5 mL/min/kg and below 49.5 mL/min/kg, respectively. The fraction unbound turned out to be 0.235 in data set [4] and 0.096 in data set [5].

As for `COc1ncc(-n2c(C(=O)N3CC(F)C3)cc3cccnc32)cc1Cl`, in data set [6], the Activity result is “Non-Toxic”. The CLint scaled in data set [2] is below 23.1 mL/min/kg; in data set [3] it was 134 mL/min/kg. Further, the fraction unbound in data set [4] stood at 0.049; in data set [5] it was 0.066.

Turning to `O=C(c1cc2ccccc2n1-c1ccc(Cl)c(Cl)c1)N1CC(F)C1`, the inhibition in data set [1] was determined as 58%.

On to `O=C(c1cc2cccnc2n1-c1ccc(Cl)c(F)c1)N1CC(F)(F)C1`, for which, in data set [1], the inhibition is 48%.

Turning to `O=C(NCc1ccco1)c1cc2cccnc2n1-c1ccc(Cl)c(Cl)c1`, the inhibition in data set [1] is 70%.

Turning to `O=C(c1cc2cccnc2n1-c1ccc(Cl)cc1)N1CC(F)(F)C1`, in data set [1], the inhibition was 47%.

Consider `COc1c(F)cc(-n2c(C(=O)N3CC(F)(F)C3)cc3cccnc32)cc1F`, for which the inhibition in data set [1] is 35%.

Regarding `O=C(NC1CC1)c1nn2ccccc2c1-c1ccc(Cl)c(Cl)c1`, the IC50 in data set [7] came to 4.2 µM.

On to `Cc1ccc(-c2c(C(=O)NC3CC3)sc3nccnc23)cc1Cl`, for which, in data set [1], the inhibition was 46%.

On to `Cc1ccc(-n2c(C(=O)N3CC(F)(F)C3)cc3cccnc32)cc1Cl`, for which the inhibition in data set [1] came out at 47%.

With `O=C(c1cc2cccnc2n1-c1cc(F)c(Cl)c(F)c1)N1CC(F)(F)C1`, the inhibition in data set [1] is 48%. In data set [6], the Activity entry is reported as “Non-Toxic”. For the same molecule, the CLint scaled stood at 33.3 mL/min/kg in data set [2] and 104 mL/min/kg in data set [3]. Besides, the values for the fraction unbound in data set [4] and in data set [5] were 0.113 and 0.051, respectively.

With `O=C(NC1CC(F)(F)C1)c1cc2cccnc2n1-c1ccc(Cl)c(Cl)c1`, in data set [1], the inhibition came to 23%.

On to `COc1ccc(-n2c(C(=O)N3CC(F)C3)cc3cccnc32)cc1F`, for which the inhibition in data set [1] is 77%.

Turning to `N#Cc1c(F)cc(-n2c(C(=O)NC3CC(F)(F)C3)cc3cccnc32)cc1F`, in data set [1], the inhibition turned out to be 47%.

With `N#Cc1c(F)cc(-n2c(C(=O)NC3CC(F)C3)cc3cccnc32)cc1F` (stereo not drawn), the inhibition in data set [1] worked out at 58%.

For the molecule `Cc1ccc(-c2c(C(=O)NC3CC3)n(C)c3cccnc23)cc1Cl`, the inhibition in data set [1] is 56%.

Source of the values: ChEMBL document CHEMBL4725427, “Synthesis and SAR Studies of 1H-Pyrrolo[2,3-b]pyridine-2-carboxamides as Phosphodiesterase 4B (PDE4B) Inhibitors” (ACS Med Chem Lett, 2020).
